# Results: patent US20240150294A1, “ESTROGEN RECEPTOR ALPHA ANTAGONISTS AND USES THEREOF” (The University of Chicago, priority 2021, published 2024)
# Legend:
# Format in all cases: cell-based
# MCF7 breast cancer cells [1] = assay: Cellular proliferation of MCF7 breast cancer cells, 150 hours; details: 1 nM E2 + 1 μM compound, serum-starved 48 hours
# Experimental: The abilities of exemplary compounds of formula (I) to inhibit the cellular proliferation of MCF7 breast cancer cells were measured. Cells were serum-starved for 48 hours before they were treated with either vehicle (DMSO), 1 nM hormone (estradiol [E2]), or 1 nM E2+1 μM compound in triplicate for 150 hours.
# ERα = biological target: T1, ERα (Homo sapiens, UniProt P03372); assay: Transcriptional reporter gene assay (estrogen response element-GFP) in MCF7 cells; details: ERE-controlled green fluorescent protein, reduction in fluorescence
# T1 construct: endogenous in cells; host or cells: MCF7
# T1 sequence (P03372 1-595): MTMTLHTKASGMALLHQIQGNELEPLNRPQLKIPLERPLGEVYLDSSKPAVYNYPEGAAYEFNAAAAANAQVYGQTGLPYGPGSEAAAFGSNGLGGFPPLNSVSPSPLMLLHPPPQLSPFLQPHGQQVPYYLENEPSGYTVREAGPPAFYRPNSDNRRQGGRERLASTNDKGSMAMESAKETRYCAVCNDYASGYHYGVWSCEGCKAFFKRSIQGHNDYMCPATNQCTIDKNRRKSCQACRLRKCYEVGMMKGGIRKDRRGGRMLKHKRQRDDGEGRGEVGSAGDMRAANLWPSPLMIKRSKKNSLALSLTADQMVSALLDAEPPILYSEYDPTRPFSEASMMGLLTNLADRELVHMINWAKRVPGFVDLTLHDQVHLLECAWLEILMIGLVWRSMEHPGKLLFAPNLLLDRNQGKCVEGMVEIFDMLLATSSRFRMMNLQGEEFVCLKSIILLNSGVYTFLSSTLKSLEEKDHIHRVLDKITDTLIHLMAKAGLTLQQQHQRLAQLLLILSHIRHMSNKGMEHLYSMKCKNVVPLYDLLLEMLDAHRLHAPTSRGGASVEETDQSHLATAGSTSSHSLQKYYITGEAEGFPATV
# Experimental: The reduction in fluorescence was measured and the IC50 value (nM) was determined for various compounds of formula (I) in comparison to known antagonists.
# MCF7 breast cancer cells [2] = assay: Crystal violet endpoint assay of MCF7 cellular viability; details: 500 nM, in the presence of 1 nM E2, 1 week
# Text: A crystal violet endpoint assay is useful for obtaining quantitative information about the relative density of cells adhering to multi-well cluster dishes. The crystal violet dye stains DNA. Upon solubilization, the amount of dye taken up by the monolayer can be quantified in a spectrophotometer or plate reader when the absorbance of each well is read at 570 nm. A crystal violet assay kit to measure cell viability is commercially available (e.g., Abcam, Cambridge, MA). All antagonist treatments were performed in the presence of 1 nM hormone (E2) for 1 week.
# halo-ERα = assay: ERα cellular stability, live-cell halo-ERα assay in T47D breast cancer cells; details: 0 to 10 μM, 24 hours
# Experimental: T47D breast cancer cell lines were generated with stable Tet-ON wild type (WT), Y537S mutation, or D538G halo-ERα mutation and enriched through flow sorting. Cells were cultured for 48 hours in media supplemented with charcoal-stripped fetal bovine serum (FBS) in puromycin. Subsequently, 1 μg/mL doxycycline was added to induce expression and 1 μM G618 antibody was added to follow the expression of the halo-tagged proteins. Cells were then treated with increasing concentrations of a compound of interest between 0 and 10 μM for 24 hours. After treatment, cells were imaged using an INUCYTE™ S3 (Essen BioScience, Ann Arbor, MI). ERα degradation was quantified by using the red channel integrated intensity per image normalized to phase channel confluence area.
# Tissue specific activities often correlate with a molecule's influence on ERα levels.
IC50 (ERα) [nM],Compound,anti-proliferative activities (fold-change in cell count versus starting cell count) (MCF7 breast cancer cells [1]),other results
,CCCCCN1CCC(COc2ccc(C3c4ccc(O)cc4CC4(CC4)N3C(=O)c3ccccc3)cc2)C1 (stereo not drawn) [Compound 23],did not enhance anti-proliferative activities compared to compound 14,
3.85,CC1CCN(CCOc2ccc(C3c4ccc(O)cc4CC4(CC4)N3C(=O)c3ccccc3)cc2)C1 (mixture of isomers) [Compound 16],,
,CCCN1CCC(CNc2ccc(C3c4ccc(O)cc4CC4(CC4)N3C(=O)c3ccccc3)cc2)C1 (stereo not drawn) [Compound 26],reduced anti-proliferative activities compared to compound 14,
49.4,O=C(c1ccccc1)N1C(c2ccc(OCCN3CCCCCC3)cc2)c2ccc(O)cc2CC12CC2 (stereo not drawn) [Compound 5],,
,CCCN1CCC(CCc2ccc(C3c4ccc(O)cc4CC4(CC4)N3C(=O)c3ccccc3)cc2)C1 (stereo not drawn) [Compound 24],reduced anti-proliferative activities compared to compound 14,
,CC1Cc2cc(O)ccc2C(c2ccc(OC[C@H]3CCN(CCCF)C3)cc2)N1C(=O)c1ccccc1 (stereo partly drawn) [35(S)],modestly reduced the anti-proliferative activities compared compound 29,
21,CCN1CCC(CCOc2ccc(C3c4ccc(O)cc4CC4(CC4)N3C(=O)c3ccccc3)cc2)C1 (stereo not drawn) [Compound 13],,induction of apoptosis (cellular viability) (MCF7 breast cancer cells [2]): appear to induce apoptosis
222,CCNCCOc1ccc(C2c3ccc(O)cc3CC3(CC3)N2C(=O)c2ccccc2)cc1 (stereo not drawn) [Compound 21],,
58.8,CCN1CCC(Oc2ccc(C3c4ccc(O)cc4CC4(CC4)N3C(=O)c3ccccc3)cc2)C1 (stereo not drawn) [Compound 12],,
500,CNCCOc1ccc(C2c3ccc(O)cc3CC3(CC3)N2C(=O)c2ccccc2)cc1 (stereo not drawn) [Compound 20],,
,CC1Cc2cc(O)ccc2C(c2ccc(OCC3CCN(CCCF)C3)cc2)N1C(=O)c1ccccc1 [35(R)],modestly reduced the anti-proliferative activities compared compound 29,
4.8,C[C@H]1CCN(CCOc2ccc(C3c4ccc(O)cc4CC4(CC4)N3C(=O)c3ccccc3)cc2)C1 (stereo partly drawn) [Compound 15],,
130,CCCN1CC(Oc2ccc(C3c4ccc(O)cc4CC4(CC4)N3C(=O)c3ccccc3)cc2)C1 (stereo not drawn) [Compound 2],,
,O=C(c1ccccc1)N1C(c2ccc(CCC3CCN(CCCF)C3)cc2)c2ccc(O)cc2CC12CC2 (stereo not drawn) [Compound 25],reduced anti-proliferative activities compared to compound 14,
744,CN(C)CCOc1ccc(C2c3ccc(O)cc3CC3(CC3)N2C(=O)c2ccccc2)cc1 (stereo not drawn) [Compound 19],,
19,CCCN1CCC(COc2ccc(C3c4ccc(O)cc4CC4(CC4)N3C(=O)c3ccccc3)cc2)C1 (stereo not drawn) [Compound 14],,induction of apoptosis (cellular viability) (MCF7 breast cancer cells [2]): appear to induce apoptosis
358,CCN1CC(Oc2ccc(C3c4ccc(O)cc4CC4(CC4)N3C(=O)c3ccccc3)cc2)C1 (stereo not drawn) [Compound 1],,influence on ERα levels (SERM-like / SERD-like profile) (halo-ERα): weak SERD-like profile
,CCCCN1CCC(COc2ccc(C3c4ccc(O)cc4CC4(CC4)N3C(=O)c3ccccc3)cc2)C1 (stereo not drawn) [Compound 22],did not enhance anti-proliferative activities compared to compound 14,
,O=C(c1ccccc1)N1C(c2ccc(OCC3CCN(CCCF)C3)cc2)c2ccccc2CC12CC2 (stereo not drawn) [Compound 34],ablated anti-proliferative activities,
,CCCN1CCC(CSc2ccc(C3c4ccc(O)cc4CC4(CC4)N3C(=O)c3ccccc3)cc2)C1 (stereo not drawn) [Compound 27],did not show an appreciable difference in anti-proliferative activities compared to compound 14,
,CCCN1CC(COc2ccc(C3c4ccc(O)cc4CC4(CC4)N3C(=O)c3ccccc3)cc2)C1 (stereo not drawn) [Compound 4],improved anti-proliferative activities compared to an ethylazetidine,
,O=C(c1ccccc1)N1C(c2ccc(OCC3CCN(CCCF)C3)cc2)c2ccc(O)cc2CC12CC2 (stereo not drawn) [Compound 29],enhanced anti-proliferative activities,
23.4,O=C(c1ccccc1)N1C(c2ccc(OCCN3CCCCC3)cc2)c2ccc(O)cc2CC12CC2 (stereo not drawn) [Compound 6],,

Compound,IC50 (ERα) [nM],anti-proliferative activities (fold-change in cell count versus starting cell count) (MCF7 breast cancer cells [1]),other results
"CC1=C(c2ccc(O)cc2)[C@H](c2ccc(OCCN3CC[C@@H](C)C3)cc2)Oc2cc(O)ccc21 [OP1074, reference compound]",0.17,,
